In US11883442B1, “Composition for treating irritable bowel syndrome” (KING FAISAL UNIVERSITY, priority 2023, dated 2024):

Tested on: TNF-α
Assay: cytokine (TNF-α) levels in the colonic homogenate, TNBS-induced colitis model
Assay type: in vivo, C57B16j mice
Conditions: at a pH value of 5.2; FIG. 2B
Procedure: Colitis was induced in C57B16j mice by 2,4,6-trinitrobenzene sulfonic acid (TNBS). TNBS induction was made at 0 and 4 days. BA 10^8/mL BA, EF 10^9/mL EF, and calciferol at […] was administered as oral gavage on alternative days from day 0 to day 14.
A comparative evaluation of cytokine (TNF-α) levels in the colonic homogenate of different mice groups from the TNBS-induced colitis model was performed. TNF-α was quantified after 14 days of the start of the experiment. All data were collected from three individual experiments and pooled and expressed as mean ±SD (p<0.05). The effect of BA and EF loads on the pro-inflammatory marker (TNF-α) in TNBS-induced colitis mice is illustrated in FIGS. 1A-1B (values are expressed in pg/mL).
Disease index and bleeding indicated degree of recovery of the disease in the group treated with the composition. […] TNF-α was quantified after 14 days of the experiment. The values are expressed in pg/mL. All data were collected from three individual experiments and pooled and expressed as mean ±SD (p<0.05). *p<0.05 represents significance.

Q: `C=C1CC[C@H](O)C/C1=C/C=C1\CCC[C@]2(C)[C@@H]([C@H](C)/C=C/[C@H](C)C(C)C)CC[C@@H]12` [calciferol] was tested. Which “most effective concentration of calciferol in the composition” value did it give?
A: The value was 5 µM.
